In patent publication US20220354811A1, “METHODS AND COMPOSITIONS FOR MODULATING MACROPHAGES POLARIZATION” (INSERM (INSTITUT NATIONAL DE LA SANTÉ ET DE LA RECHERCHE …, priority 2019, published 2022):
Residues, ends and D or L forms follow the SMILES beside them. *: point of attachment. Cbz = O=C(OCc1ccccc1)*; CH2F = FC*

Columns and labels:
human primary monocytes = conditions: literature (Jacquel et al., Blood 2009, Sci Reports 2018); cited from earlier work
caspase-8 = caspase-8 (Homo sapiens, UniProt Q14790); experiment: Recombinant caspase-8 activity in vitro (Ac-IETD-AMC substrate); assay type: biochemical; set-up: using active recombinant proteins of caspase-8 and caspase-3; purchased Enzo life sciences ALX-201-062; conditions: recombinant caspase-8, Ac-IETD-AMC
Sequence of caspase-8 (Q14790 217-374 limits assumed): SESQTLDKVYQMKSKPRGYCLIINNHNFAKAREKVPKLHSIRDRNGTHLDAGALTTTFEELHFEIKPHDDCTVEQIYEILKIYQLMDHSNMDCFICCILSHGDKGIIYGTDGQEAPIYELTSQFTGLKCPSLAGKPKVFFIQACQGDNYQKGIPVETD
Sequence of caspase-8 (Q14790 385-479 limits assumed): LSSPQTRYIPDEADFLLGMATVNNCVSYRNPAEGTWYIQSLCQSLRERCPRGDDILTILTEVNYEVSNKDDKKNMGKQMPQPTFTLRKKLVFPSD
Description: FIG. 4. […] (A) Measures of caspase-8 activity (IETD-AMC). IETD-CHO treatment is used as positive control in the in vitro assay. The results are expressed as A.U./min and represent the mean of 3 independent experiments realized in duplicate (B) Measures of caspase-3 activity (DEVD-AMC). DEVD-CHO is used as positive control in the in vitro assay. The results are expressed as A.U./min and represent the mean of 3 independent experiments realized in duplicate. Human CSF-1 was purchased from Miltenyi (130-096-493). […] Mouse caspase-8 was from R&D Systems (AF705). HRP-conjugated rabbit anti-goat was purchased from Dako ([…]) and HRP-conjugated goat anti-rabbit was from Cell Signaling (5127). Active recombinant caspase-8 (ALX-201-062) and -3 (ALX-201-059) were from Enzo life sciences. […] Each assay (in triplicate) was performed with 10 μg of protein prepared from control or stimulated cells. […] Enzyme activities were expressed in arbitrary units (A.U.) per min and per mg of proteins. The same protocol was used with 0.25 units of active recombinant caspase-8 (Enzo, ALX-201-062) or -3 (Enzo, ALX-201-059) in each triplicate.

Row | Compound | effect on CSF-1-induced monocyte differentiation (human primary monocytes) | IC50 (caspase-8) [nM]
1 | COC(=O)C[C@H](NC(=O)[C@H](C)NC(=O)[C@@H](NC(=O)OCc1ccccc1)C(C)C)C(=O)CF [z-VAD-fmk] (Cbz-Val-Ala-Asp(OMe)-CH2F) | inhibits | 
2 | CC[C@H](C)[C@H](NC(C)=O)C(=O)N[C@@H](CCC(=O)O)C(=O)N[C@H](C(=O)N[C@H](C=O)CC(=O)O)[C@@H](C)O [Ac-IETD-CHO] (Ac-IETD-aldehyde) |  | 15
